Laboratory results from patent US20100004234A1, “SPECIFIC KINASE INHIBITORS” (Kosan Biosciences Incorporated, priority 2004, published 2010).
Where two headings read alike, the source gives them in different places.

Tests used:
ERK2 = ERK2 (UniProt P28482); assay type: biochemical; set-up: Ki; other: ERK2; 1 mM ATP; kinact; T1/2; kinact/Ki; "the target Cys 172 residue; conditions: ERK2
Protocol: In either case, the time dependent inactivation can be dampened by the presence of a competing substrate, in this case ATP.
For covalent inhibitors, plots of log (activity) versus time provide apparent first-order rate constants (kobsd) of enzyme activity loss. If these assays are performed at varying concentrations of inhibitor, a series of first-order plots is obtained and kobsd obtained at each inhibitor concentration. […] Such molecules may be competitive inhibitors but should not show time-dependent inactivation.
Inhibition progress curve analysis was performed using continuous, colorimetric, or fluorimetric assays. All experiments were done at 1 mM ATP, with the exception of KDR (at 5 mM ATP).
(§1) MEK1 assays were performed using pre-incubation experiments with radioactive [^32P]ATP and filter binding of product. All other kinases were analyzed using progress curve analysis from a continuous spectrophotometric assay.

A375 xenograft = test: B-Raf mutant melanoma (A375) xenograft model; assay type: in vivo
From the text: The sensitivity of B-Raf mutated cancer cell lines to RALs was confirmed in a B-Raf mutant melanoma (A375) xenograft model.

Flt-1 (VEGFR1) = Flt-1 (VEGFR1) (Homo sapiens, UniProt P17948); test: Time-dependent kinase inhibition kinetics (progress curve); assay type: biochemical
Flt-1 (VEGFR1), sequence (P17948 27-1338): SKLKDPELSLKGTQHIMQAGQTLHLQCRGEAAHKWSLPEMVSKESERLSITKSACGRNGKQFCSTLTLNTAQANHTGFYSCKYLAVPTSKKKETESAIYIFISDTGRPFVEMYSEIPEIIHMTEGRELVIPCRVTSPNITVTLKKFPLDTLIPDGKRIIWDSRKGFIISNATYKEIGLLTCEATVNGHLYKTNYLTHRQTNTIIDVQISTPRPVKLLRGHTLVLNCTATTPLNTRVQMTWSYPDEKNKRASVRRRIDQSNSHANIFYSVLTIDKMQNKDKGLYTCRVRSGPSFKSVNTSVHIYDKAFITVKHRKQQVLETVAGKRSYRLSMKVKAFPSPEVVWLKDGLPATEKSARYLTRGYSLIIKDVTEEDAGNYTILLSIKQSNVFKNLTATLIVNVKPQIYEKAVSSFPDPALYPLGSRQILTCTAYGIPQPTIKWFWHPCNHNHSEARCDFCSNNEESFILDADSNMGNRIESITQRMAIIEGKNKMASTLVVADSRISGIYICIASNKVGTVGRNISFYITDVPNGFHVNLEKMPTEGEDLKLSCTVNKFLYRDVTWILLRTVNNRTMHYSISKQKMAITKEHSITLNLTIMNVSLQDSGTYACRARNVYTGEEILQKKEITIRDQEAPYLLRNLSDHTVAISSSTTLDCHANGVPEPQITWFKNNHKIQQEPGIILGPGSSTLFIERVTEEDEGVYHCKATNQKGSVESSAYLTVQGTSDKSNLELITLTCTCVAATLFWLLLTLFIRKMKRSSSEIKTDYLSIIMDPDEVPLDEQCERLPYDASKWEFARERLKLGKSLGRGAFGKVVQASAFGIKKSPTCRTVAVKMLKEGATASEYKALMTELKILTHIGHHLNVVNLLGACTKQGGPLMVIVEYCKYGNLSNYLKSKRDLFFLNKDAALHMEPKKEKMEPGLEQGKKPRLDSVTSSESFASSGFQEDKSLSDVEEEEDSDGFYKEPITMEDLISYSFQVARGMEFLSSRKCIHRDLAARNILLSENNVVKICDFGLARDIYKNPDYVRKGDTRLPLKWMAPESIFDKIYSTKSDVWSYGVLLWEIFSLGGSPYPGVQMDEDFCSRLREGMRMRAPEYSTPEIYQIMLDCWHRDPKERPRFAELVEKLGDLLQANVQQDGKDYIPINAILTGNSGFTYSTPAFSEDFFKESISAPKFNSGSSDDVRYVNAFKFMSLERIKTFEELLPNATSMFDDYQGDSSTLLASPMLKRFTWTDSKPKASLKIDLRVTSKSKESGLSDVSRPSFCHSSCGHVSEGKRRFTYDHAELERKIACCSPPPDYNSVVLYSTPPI
Protocol: (§2) Typically, one measures the increase in inhibition of protein kinase activity in the presence of inhibitor over time. In one method, aliquots of a “pre-incubation” reaction mixture containing enzyme and inhibitor are assayed for activity (initial velocities) over time; increased inhibition or decreased initial velocities will be observed over time as the Michael adduct forms (Walsh, C, Enzyme Reaction Mechanisms, W.H. Freeman & Co., 1979, pp 86-94). In a second method, the time dependent loss of activity is measured as “progress curves” that measure and analyze product formed (e.g. ADP) versus time (Morrison & Walsh, Adv. Enzymol Relat Areas Mol. Biol. 1988, 61, 201-301). In either case, the time dependent inactivation can be dampened by the presence of a competing substrate, in this case ATP.
(§3) For covalent inhibitors, plots of log (activity) versus time provide apparent first-order rate constants (kobsd) of enzyme activity loss. If these assays are performed at varying concentrations of inhibitor, a series of first-order plots is obtained and kobsd obtained at each inhibitor concentration. To measure time-dependent inhibition using the “progress-curve method” (see references cited above and Kuzmic et al., Methods Enzymol 2004; 383: 366-81), ERK (or other kinase) is treated with varying amounts of the lactone inhibitor, and the formation of ADP is measured continuously by a coupled assay. […] Such molecules may be competitive inhibitors but should not show time-dependent inactivation.
(§4) Those of skill in the art will recognize that within the set of compounds useful in the methods of the invention, significant variability in specificity can be achieved, allowing one to identify optimal compounds for different applications. Inhibition progress curve analysis was performed using continuous, colorimetric, or fluorimetric assays. All experiments were done at 1 mM ATP, with the exception of KDR (at 5 mM ATP).
as §1

MEK1 = MEK1 (Homo sapiens, UniProt Q02750); test: Time-dependent kinase inhibition kinetics (pre-incubation, [32P]ATP filter binding); assay type: biochemical
MEK1, sequence (Q02750 whole entry): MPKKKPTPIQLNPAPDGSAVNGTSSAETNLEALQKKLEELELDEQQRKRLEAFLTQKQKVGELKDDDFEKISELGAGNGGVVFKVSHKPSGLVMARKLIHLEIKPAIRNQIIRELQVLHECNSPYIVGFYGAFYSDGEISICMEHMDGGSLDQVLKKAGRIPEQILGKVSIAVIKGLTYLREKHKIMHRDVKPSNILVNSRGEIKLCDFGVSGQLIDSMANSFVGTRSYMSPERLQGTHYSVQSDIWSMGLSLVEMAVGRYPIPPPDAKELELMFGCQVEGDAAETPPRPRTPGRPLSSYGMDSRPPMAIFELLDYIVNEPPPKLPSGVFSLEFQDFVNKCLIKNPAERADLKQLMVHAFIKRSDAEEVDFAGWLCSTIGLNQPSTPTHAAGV
Protocol: as §2
MEK1 and many other protein kinases that can be targets of the compounds useful in the methods of the invention can be obtained commercially (Invitrogen; Carlsbad, Calif.) or prepared using standard molecular biology techniques. After activation by phosphorylation, they are assayed for their ability to phosphorylate a target kinase or surrogate substrate. For example, MEK1 can be assayed in a mixture containing MEK1 (30 nM) and ERK1 (2 μM), [γ-^32P]ATP (10 uM) and MgCl2 in Mops buffer pH 7.6. Phosphorylation can be measured by isolating [γ-^32P]-phosphorylated ERK1 on phosphocellulose paper, and counting radioactive product. Alternatively, a coupled enzyme system may be used in which a product of the kinase reaction, such as ADP, is measured by analysis with a secondary system that converts that product (e.g. ADP) to an easily measurable entity (e.g. NADH); often, such coupled systems can be measured by convenient spectrophotometry assays.
To measure time-dependent inhibition using the “pre-incubation method”, MEK1 (or other kinase) is incubated with varying amounts of the lactone inhibitor; […]. Aliquots are removed at various times, added to a solution containing substrates [γ-^32P]ATP, ERK1 (or other substrate), and the other components of the reaction, and initial rates are determined as a measure of remaining enzyme activity.
as §3, §4, §1

[1] = system: EOL-1 (Human leukemia FLP1L1-PDGFRA); test: Cell proliferation assay (Cell Titer Glo); assay type: cell-based; conditions: Homo sapiens, EOL1, read-out: Kinase Inhibitor IC50
Protocol: (§5) In one illustrative method, cells are treated with various concentrations of the inhibitor in 96 well plates, incubated at 37° C./5% CO2 for three days, and analyzed using the Cell Titer Glo kit (Promega).

[2] = system: WM266-4 (Human melanoma, B-Raf V599D); test: Cell proliferation assay (Cell Titer Glo); assay type: cell-based; conditions: Homo sapiens, WM 266-4, read-out: Kinase Inhibitor IC50
Protocol: as §5

[3] = system: A549 (NSCLC, B-Raf wild-type); test: Cell proliferation assay (Cell Titer Glo); assay type: cell-based; conditions: Homo sapiens, A549, read-out: Kinase Inhibitor IC50
Protocol: as §5

[4] = system: MV4-11 (Human leukemia Flt3-ITD); test: Cell proliferation assay (Cell Titer Glo); assay type: cell-based; conditions: Homo sapiens
Protocol: as §5

[5] = system: ASZ001 (Basal cell carcinoma); test: Cell proliferation assay (Cell Titer Glo); assay type: cell-based
Protocol: as §5

[6] = system: DU4475 (Human breast, B-Raf V599E); test: Cell proliferation assay (Cell Titer Glo); assay type: cell-based; conditions: Homo sapiens, DU-4475, read-out: Kinase Inhibitor IC50
Protocol: as §5

[7] = system: P815 (Mouse mastocytoma, KIT D814Y); test: Cell proliferation assay (Cell Titer Glo); assay type: cell-based; conditions: Mus musculus
Protocol: as §5

[8] = system: A375 (Human melanoma, B-Raf V599E); test: Cell proliferation assay (Cell Titer Glo); assay type: cell-based; conditions: Homo sapiens, A-375, read-out: Kinase Inhibitor IC50
Protocol: as §5

`COc1cc(O)c2c(c1)[C@H]1O[C@@H]1C[C@H](O)[C@H](O)C(=O)/C=C\C[C@H](C)OC2=O` [Hypothemycin, hypothemycin] was tested. Which kinact/Ki (ERK2) did it give?
The kinact/Ki was 1900 M⁻¹ s⁻¹.

And the Ki (ERK2; 1 mM ATP)?
The Ki was 2700 nM.

What about the kinact (ERK2; 1 mM ATP) of the same molecule?
Its kinact is 0.005 s⁻¹.

What about the “growth of the A375 xenograft relative to vehicle alone” value (A375 xenograft; administered daily at 15 mg/kg or 20 mg/kg, FIG. 6) of the same molecule?
Its value is “significantly inhibits the growth”.

And the “A375 xenograft growth inhibition compared with Bayer 43-9006” value (A375 xenograft; hypothemycin at both dosages vs Bayer 43-9006 25 mg/kg or 50 mg/kg every other day)?
Its value is “significantly better”.

And the kinact/KI (Flt-1 (VEGFR1))?
Its kinact/KI is 160000 M⁻¹ s⁻¹.

And the kinact (Flt-1 (VEGFR1); 1 mM ATP)?
Its kinact is 0.018 s⁻¹.

What about the Ki (Flt-1 (VEGFR1); 1 mM ATP, significant decrease of enzyme activity over time without inhibitor) of the same molecule?
The Ki was 110 nM.

And the kinact/KI (MEK1)?
Its kinact/KI is 130000 M⁻¹ s⁻¹.

What about the Ki (MEK1; 1 mM ATP) of the same molecule?
The Ki was 19 nM.

What about the kinact (MEK1; 1 mM ATP, read-out: kinact) of the same molecule?
Its kinact is 0.003 s⁻¹.

What about the IC50 [1] of the same molecule?
The IC50 was 0.41 nM.

What about the IC50 [2] of the same molecule?
The IC50 was 40 nM.

What about the IC50 [3] of the same molecule?
The IC50 was 6000 nM.

What about the GI50 ([4]; MV4-11) of the same molecule?
The GI50 was 6 nM.

And the IC50 ([4]; MV4-11, read-out: Kinase Inhibitor IC50)?
Its IC50 is 5.5 nM.

And the IC50 ([5]; ASZ001 (Basal cell carcinoma), read-out: Kinase Inhibitor IC50)?
The IC50 was 100 nM.

What about the IC50 ([5]; BCC cell line ASZ001 in culture, read-out: IC50) of the same molecule?
Its IC50 is roughly 100 nM.

What about the IC50 [6] of the same molecule?
Its IC50 is 18 nM.

What about the GI50 ([7]; P815) of the same molecule?
Its GI50 is 310 nM.

And the IC50 ([7]; P815, read-out: Kinase Inhibitor IC50)?
The IC50 was 310 nM.

What about the IC50 [8] of the same molecule?
The IC50 was 180 nM.
